Source: ChEMBL document CHEMBL1201862, “PubChem BioAssay data set” (2004)
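Method: 48-hour compound exposure of cells in 96-well plates, five concentrations, linear interpolation of endpoints. GI50 is the concentration that inhibits growth by half.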 The source made the active and inactive calls. Rule as the data show it: active = GI50 up to about 1.1 µM and inactive = higher.

Tests used:
Test in all cases: inhibition of tumour cell growth, NCI panel, 48 h
[1] = tested on: IGROV-1
[2] = tested on: NCI-H23
[3] = tested on: SK-MEL-28
[4] = tested on: OVCAR-8
[5] = tested on: COLO 205
[6] = tested on: LOX IMVI
[7] = tested on: CCRF-CEM
[8] = tested on: HOP-62
[9] = tested on: SK-MEL-2
[10] = tested on: ACHN
[11] = tested on: HOP-92
[12] = tested on: RXF 393
[13] = tested on: OVCAR-5
[14] = tested on: SR
[15] = tested on: K562
[16] = tested on: SNB-75
[17] = tested on: HCT-116

SMILES | GI50 [1] | GI50 [2] | GI50 [3] | GI50 [4] | GI50 [5] | GI50 [6] | GI50 [7] | GI50 [8] | GI50 [9] | GI50 [10] | GI50 [11] | GI50 [12] | GI50 [13] | GI50 [14] | GI50 [15] | GI50 [16] | GI50 [17]
N#Cc1ccc(Cc2ccccn2)cc1Cl | > 100 µM (inactive) | > 100 µM (inactive) | > 100 µM (inactive) | > 100 µM (inactive) | > 100 µM (inactive) | > 100 µM (inactive) | > 100 µM (inactive) | > 100 µM (inactive) | > 100 µM (inactive) | > 100 µM (inactive) | > 100 µM (inactive) | > 100 µM (inactive) | > 100 µM (inactive) | > 100 µM (inactive) | > 100 µM (inactive) | – | –
Cc1cc([N+](=O)[O-])c(C)c2c1[nH]c1ccc(O)cc12 | – | > 100 µM (inactive) | > 100 µM (inactive) | > 100 µM (inactive) | 64.6 µM (inactive) | 61.5 µM (inactive) | 23.4 µM (inactive) | > 100 µM (inactive) | > 100 µM (inactive) | 99.8 µM (inactive) | – | – | > 100 µM (inactive) | 28.8 µM (inactive) | 45.8 µM (inactive) | > 100 µM (inactive) | > 100 µM (inactive)
CCOC(=O)C12CCCC1(O)N(NC(N)=O)C(C)=C2C(=O)OC (stereo unspecified) | > 100 µM (inactive) | > 100 µM (inactive) | > 100 µM (inactive) | > 100 µM (inactive) | > 100 µM (inactive) | > 100 µM (inactive) | > 100 µM (inactive) | > 100 µM (inactive) | > 100 µM (inactive) | > 100 µM (inactive) | > 100 µM (inactive) | – | > 100 µM (inactive) | – | > 100 µM (inactive) | – | > 100 µM (inactive)
CCOC(=O)NC/C=C/COC1CCCCO1 (stereo unspecified) | > 100 µM (inactive) | – | > 100 µM (inactive) | > 100 µM (inactive) | > 100 µM (inactive) | – | > 100 µM (inactive) | > 100 µM (inactive) | > 100 µM (inactive) | > 100 µM (inactive) | – | > 100 µM (inactive) | – | > 100 µM (inactive) | > 100 µM (inactive) | > 100 µM (inactive) | > 100 µM (inactive)
COC(=O)c1ccc(C=C(C#N)C#N)cc1 | 28.4 µM (inactive) | 19.4 µM (inactive) | 19.3 µM (inactive) | 21.9 µM (inactive) | 27.7 µM (inactive) | 21 µM (inactive) | 21.5 µM (inactive) | 27 µM (inactive) | 18.4 µM (inactive) | 25 µM (inactive) | 14.7 µM (inactive) | – | > 100 µM (inactive) | – | 23.2 µM (inactive) | 27.4 µM (inactive) | 17.1 µM (inactive)
Nc1ccc2nc(Nc3ccc(F)cc3)cnc2c1 | – | – | > 100 µM (inactive) | > 100 µM (inactive) | > 100 µM (inactive) | > 100 µM (inactive) | 30.5 µM (inactive) | > 100 µM (inactive) | > 100 µM (inactive) | > 100 µM (inactive) | – | – | > 100 µM (inactive) | 36.1 µM (inactive) | 81.5 µM (inactive) | > 100 µM (inactive) | > 100 µM (inactive)
COC1=CC(=O)C2(C=C1OC)OC[C@H]1Oc3c(ccc4c3C=CC(C)(C)O4)C(=O)[C@H]12 (stereo partly specified) | 40.3 µM (inactive) | 23.7 µM (inactive) | 41.2 µM (inactive) | 37.5 µM (inactive) | 36.6 µM (inactive) | 78.9 µM (inactive) | 28.1 µM (inactive) | 92.7 µM (inactive) | 45.2 µM (inactive) | 44.8 µM (inactive) | 7.64 µM (inactive) | 30.2 µM (inactive) | > 100 µM (inactive) | – | 36.8 µM (inactive) | 32.1 µM (inactive) | 28.4 µM (inactive)
COc1ccc(C(=C(C#N)C#N)c2ccc(OC)cc2)cc1 | > 100 µM (inactive) | > 100 µM (inactive) | > 100 µM (inactive) | > 100 µM (inactive) | > 100 µM (inactive) | > 100 µM (inactive) | 33 µM (inactive) | > 100 µM (inactive) | > 100 µM (inactive) | > 100 µM (inactive) | – | > 100 µM (inactive) | > 100 µM (inactive) | 59.4 µM (inactive) | > 100 µM (inactive) | – | > 100 µM (inactive)
C[N+](C)(C)CC(=O)NC(=O)N/N=C\C(CC#N)CN(Cc1ccccc1)Cc1ccccc1 (stereo unspecified) | > 100 µM (inactive) | > 100 µM (inactive) | > 100 µM (inactive) | > 100 µM (inactive) | > 100 µM (inactive) | > 100 µM (inactive) | > 100 µM (inactive) | > 100 µM (inactive) | > 100 µM (inactive) | > 100 µM (inactive) | – | > 100 µM (inactive) | > 100 µM (inactive) | > 100 µM (inactive) | > 100 µM (inactive) | > 100 µM (inactive) | > 100 µM (inactive)
COc1ccc(/C=C2\C(=O)Nc3ccccc32)cc1OC | > 100 µM (inactive) | > 100 µM (inactive) | > 100 µM (inactive) | > 100 µM (inactive) | > 100 µM (inactive) | 45.3 µM (inactive) | > 100 µM (inactive) | > 100 µM (inactive) | > 100 µM (inactive) | > 100 µM (inactive) | 44.6 µM (inactive) | > 100 µM (inactive) | > 100 µM (inactive) | – | 44.7 µM (inactive) | 24.5 µM (inactive) | > 100 µM (inactive)
CC1=CCC23C(C1)OC(Br)(C=CC2(C)O)C3(C)C (stereo unspecified) | > 100 µM (inactive) | > 100 µM (inactive) | > 100 µM (inactive) | > 100 µM (inactive) | > 100 µM (inactive) | > 100 µM (inactive) | > 100 µM (inactive) | – | > 100 µM (inactive) | > 100 µM (inactive) | > 100 µM (inactive) | – | > 100 µM (inactive) | – | > 100 µM (inactive) | > 100 µM (inactive) | > 100 µM (inactive)
O=C(N/C(=C\c1ccc(Cl)cc1)c1nc2ccccc2[nH]1)c1ccccc1 | 19.4 µM (inactive) | 18.3 µM (inactive) | 18.5 µM (inactive) | 24.5 µM (inactive) | 17.7 µM (inactive) | 16.2 µM (inactive) | 20 µM (inactive) | – | 19.1 µM (inactive) | 27.5 µM (inactive) | 14.9 µM (inactive) | 18.4 µM (inactive) | 37.2 µM (inactive) | – | 15.1 µM (inactive) | 19.7 µM (inactive) | 13.7 µM (inactive)
N#Cc1c(-c2ccccc2)c(-c2ccccc2)cc2c(=O)c3ccc(Cl)cc3[nH]c12 | > 100 µM (inactive) | > 100 µM (inactive) | > 100 µM (inactive) | > 100 µM (inactive) | > 100 µM (inactive) | – | > 100 µM (inactive) | > 100 µM (inactive) | > 100 µM (inactive) | > 100 µM (inactive) | > 100 µM (inactive) | > 100 µM (inactive) | > 100 µM (inactive) | > 100 µM (inactive) | – | > 100 µM (inactive) | > 100 µM (inactive)
O=C1[C@@H]2C(c3ccccc3Br)=NO[C@@H]2C(=O)N1c1ccc(Cc2ccc(N3C(=O)[C@H]4C(c5ccccc5Br)=NO[C@H]4C3=O)cc2)cc1 | > 100 µM (inactive) | > 100 µM (inactive) | > 100 µM (inactive) | > 100 µM (inactive) | > 100 µM (inactive) | > 100 µM (inactive) | > 100 µM (inactive) | > 100 µM (inactive) | > 100 µM (inactive) | > 100 µM (inactive) | > 100 µM (inactive) | 50.2 µM (inactive) | > 100 µM (inactive) | – | > 100 µM (inactive) | 77.3 µM (inactive) | –
COC(=O)c1cc2c(=O)n(C)c3ccccc3n2c1C(=O)OC | 56.6 µM (inactive) | 40.7 µM (inactive) | 70.5 µM (inactive) | 35.8 µM (inactive) | > 100 µM (inactive) | 45.2 µM (inactive) | > 100 µM (inactive) | 16.9 µM (inactive) | > 100 µM (inactive) | 83.2 µM (inactive) | 33 µM (inactive) | 36.2 µM (inactive) | > 100 µM (inactive) | – | > 100 µM (inactive) | 16.1 µM (inactive) | –
CN(C)CCNC(=O)c1cc2ccccc2c2nc3ccccc3nc12 | 1.45 µM (inactive) | 1.17 µM (inactive) | 1.56 µM (inactive) | 0.771 µM (active) | 0.828 µM (active) | 0.413 µM (active) | – | 2.39 µM (inactive) | 1.37 µM (inactive) | 0.407 µM (active) | – | 1.02 µM (active) | 1.94 µM (inactive) | 0.163 µM (active) | 0.363 µM (active) | 1.19 µM (inactive) | 0.373 µM (active)
CC(=O)OC1CC2CCN3C(=O)c4cc5c(cc4[C@H](C1OC(C)=O)C23)OCO5 (stereo partly specified) | > 100 µM (inactive) | > 100 µM (inactive) | > 100 µM (inactive) | > 100 µM (inactive) | > 100 µM (inactive) | > 100 µM (inactive) | > 100 µM (inactive) | > 100 µM (inactive) | – | > 100 µM (inactive) | – | > 100 µM (inactive) | – | > 100 µM (inactive) | > 100 µM (inactive) | > 100 µM (inactive) | > 100 µM (inactive)
O=C1CC[C@H](NC(=O)Cc2ccccc2)C(=O)N1 [ANTINEOPLASTON A10] | > 1250 µM (inactive) | > 1250 µM (inactive) | > 1250 µM (inactive) | > 1250 µM (inactive) | > 1250 µM (inactive) | > 1250 µM (inactive) | > 1250 µM (inactive) | > 1250 µM (inactive) | > 1250 µM (inactive) | > 1250 µM (inactive) | – | > 1250 µM (inactive) | > 1250 µM (inactive) | > 1250 µM (inactive) | > 1250 µM (inactive) | 877 µM (inactive) | > 1250 µM (inactive)
